In ChEMBL document CHEMBL1156680, “3D-QSAR studies of triazafluorenone inhibitors of metabotropic glutamate receptor subtype 1” (Eur J Med Chem, 2008):

These molecules were tested against Metabotropic glutamate receptor 1 (Rattus norvegicus, UniProt P23385) (assay: Inhibition of rat mGluR1). Conditions: read-out: IC50.
Chain of Metabotropic glutamate receptor 1 (P23385 whole entry): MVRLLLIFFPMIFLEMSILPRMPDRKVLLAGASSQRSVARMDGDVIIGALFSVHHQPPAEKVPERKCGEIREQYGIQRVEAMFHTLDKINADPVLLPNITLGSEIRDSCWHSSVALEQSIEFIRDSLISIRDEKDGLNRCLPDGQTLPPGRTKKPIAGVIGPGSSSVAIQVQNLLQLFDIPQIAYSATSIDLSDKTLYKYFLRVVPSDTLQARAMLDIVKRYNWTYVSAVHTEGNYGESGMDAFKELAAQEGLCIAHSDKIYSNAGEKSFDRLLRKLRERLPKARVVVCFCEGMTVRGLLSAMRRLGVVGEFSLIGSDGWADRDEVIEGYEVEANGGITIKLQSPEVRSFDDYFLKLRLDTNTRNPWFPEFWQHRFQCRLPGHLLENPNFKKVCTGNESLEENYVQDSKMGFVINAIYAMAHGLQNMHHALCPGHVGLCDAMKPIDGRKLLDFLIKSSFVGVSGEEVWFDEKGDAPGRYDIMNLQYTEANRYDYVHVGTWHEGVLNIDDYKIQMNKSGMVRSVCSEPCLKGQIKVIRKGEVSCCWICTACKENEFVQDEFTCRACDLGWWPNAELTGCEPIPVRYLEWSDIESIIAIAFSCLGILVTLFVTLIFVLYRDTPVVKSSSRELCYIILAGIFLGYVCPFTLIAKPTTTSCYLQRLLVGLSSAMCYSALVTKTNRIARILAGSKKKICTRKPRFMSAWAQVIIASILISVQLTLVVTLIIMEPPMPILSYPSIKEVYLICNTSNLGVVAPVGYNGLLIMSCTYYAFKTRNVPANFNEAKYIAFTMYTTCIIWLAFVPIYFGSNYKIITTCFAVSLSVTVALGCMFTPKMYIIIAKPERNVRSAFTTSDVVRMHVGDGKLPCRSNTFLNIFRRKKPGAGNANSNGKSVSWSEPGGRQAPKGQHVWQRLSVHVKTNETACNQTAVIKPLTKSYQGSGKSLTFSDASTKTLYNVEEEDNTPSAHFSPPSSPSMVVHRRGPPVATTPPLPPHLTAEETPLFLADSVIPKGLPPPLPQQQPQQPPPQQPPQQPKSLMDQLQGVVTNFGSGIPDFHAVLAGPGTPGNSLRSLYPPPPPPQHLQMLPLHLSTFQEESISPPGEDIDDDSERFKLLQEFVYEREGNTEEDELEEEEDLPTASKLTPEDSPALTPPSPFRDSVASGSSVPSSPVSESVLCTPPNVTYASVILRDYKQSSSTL
`CN(C)c1ccnc2sc3c(=O)n(C4CCCCCCC4)cnc3c12` gave an IC50 of 13 nM. Work on `Cc1ccc(-n2cnc3c(sc4nccc(N(C)C)c43)c2=O)cc1` yielded an IC50 of 5 nM. `CCc1ccc(-n2cnc3c(sc4nccc(N(C)CC)c43)c2=O)cc1` showed an IC50 of 37 nM. `CCC(CC)n1cnc2c(sc3nccc(N(C)C)c32)c1=O` gave an IC50 of 335 nM. For `CN(C)c1ccnc2sc3c(=O)n(CC4CCCCC4)cnc3c12`, the IC50 was 139 nM. In the case of `CCc1cccc(-n2cnc3c(sc4nccc(N(C)C)c43)c2=O)c1`, the IC50 is reported as 9 nM. Molecule `CCc1ccc(-n2cnc3c(sc4nccc(NC5CC5)c43)c2=O)cc1` has an IC50 of 41 nM. `CN(C)c1ccnc2sc3c(=O)n(C4CC4)cnc3c12` was tested, and the IC50 was 632 nM. `CC1CCC(n2cnc3c(sc4nccc(N(C)C)c43)c2=O)CC1` (stereo unspecified) showed an IC50 of 140 nM. `CN(C)c1ccnc2sc3c(=O)n(C45CC6CC(CC(C6)C4)C5)cnc3c12` gave an IC50 of 76 nM. Work on `Cc1ccc(-n2cnc3c(sc4nccc(N(C)C)c43)c2=O)c(C)c1` yielded an IC50 of 17 nM. For `CN(C)c1ccnc2sc3c(=O)n(-c4ccc(C(F)(F)F)cc4)cnc3c12`, the IC50 was 32 nM. Work on `CN(C)c1ccnc2sc3c(=O)n(-c4ccccc4)cnc3c12` yielded an IC50 of 20 nM. With `CN(C)c1ccnc2sc3c(=O)n(C4CCCC4)cnc3c12` the IC50 was 5 nM. In the case of `CC1CCCCC1n1cnc2c(sc3nccc(N(C)C)c32)c1=O` (stereo unspecified), the IC50 is reported as 130 nM. `CCc1ccc(-n2c(C)nc3c(sc4nccc(N(C)C)c43)c2=O)cc1` showed an IC50 of 44 nM. `CN(C)c1ccnc2sc3c(=O)n(-c4ccc(Cl)cc4Cl)cnc3c12` was tested, and the IC50 was 45 nM. Molecule `CN(C)c1ccnc2sc3c(=O)n(C4CCCCCC4)cnc3c12` has an IC50 of 1 nM. With `CN(C)c1ccnc2sc3c(=O)n(-c4ccc(F)cc4)cnc3c12` the IC50 was 23 nM. `CCc1ccc(-n2cnc3c(sc4nccc(N(C)CCOC)c43)c2=O)cc1` showed an IC50 of 71 nM. `CCc1ccc(-n2cnc3c(sc4nccc(N5CCC5)c43)c2=O)cc1` was tested, and the IC50 was 113 nM. With `CCc1ccc(-n2c(CC)nc3c(sc4nccc(N(C)C)c43)c2=O)cc1` the IC50 was 84 nM. `CN(C)c1ccnc2sc3c(=O)n(-c4ccc(C(C)(C)C)cc4)cnc3c12` showed an IC50 of 8500 nM. `CN(C)c1ccnc2sc3c(=O)n(-c4ccc(Cl)cc4)cnc3c12` was tested, and the IC50 was 16 nM. `CN(C)c1ccnc2sc3c(=O)n(-c4ccc(Br)cc4)cnc3c12` showed an IC50 of 4 nM. Molecule `CC(C)c1ccc(-n2cnc3c(sc4nccc(N(C)C)c43)c2=O)cc1` has an IC50 of 407 nM. `CCc1ccc(-n2cnc3c(sc4nccc(NC)c43)c2=O)cc1` showed an IC50 of 98 nM. `CCc1ccccc1-n1cnc2c(sc3nccc(N(C)C)c32)c1=O` gave an IC50 of 251 nM. In the case of `CCc1ccc(-n2cnc3c(sc4nccc(NCC(F)(F)F)c43)c2=O)cc1`, the IC50 is reported as 99 nM. For `CCc1ccc(-n2cnc3c(sc4nccc(N(C)C)c43)c2=O)cc1`, the IC50 was 3 nM. In the case of `CN(C)c1ccnc2sc3c(=O)n(C4CCC4)cnc3c12`, the IC50 is reported as 167 nM. Work on `CN(C)c1ccnc2sc3c(=O)n(N4CCCCCC4)cnc3c12` yielded an IC50 of 10 nM. In the case of `CN(C)c1ccnc2sc3c(=O)n(CC4CCCC4)cnc3c12`, the IC50 is reported as 26 nM. With `CN(C)c1ccnc2sc3c(=O)n(-c4ccc(C5CC5)cc4)cnc3c12` the IC50 was 87 nM. `CCCCc1nc2c(sc3nccc(N(C)C)c32)c(=O)n1-c1ccc(CC)cc1` gave an IC50 of 101 nM. Work on `CN(C)c1ccnc2sc3c(=O)n(Cc4ccccc4)cnc3c12` yielded an IC50 of 281 nM. With `CC1CCCC(n2cnc3c(sc4nccc(N(C)C)c43)c2=O)C1` (stereo unspecified) the IC50 was 482 nM. `CN(C)c1ccnc2sc3c(=O)n(C4CCCCC4)cnc3c12` showed an IC50 of 50 nM. For `COc1ccc(-n2cnc3c(sc4nccc(N(C)C)c43)c2=O)cn1`, the IC50 was 39 nM. Work on `CN(C)c1ccnc2sc3c(=O)n(-c4ccccc4O)cnc3c12` yielded an IC50 of 50 nM. `CCc1ccc(-n2cnc3c(sc4nccc([N+](C)(C)[O-])c43)c2=O)cc1` showed an IC50 of 306 nM. `CCCc1ccc(-n2cnc3c(sc4nccc(N(C)C)c43)c2=O)cc1` was tested, and the IC50 was 180 nM. `CCc1ccc(-n2cnc3c(sc4nccc(NCC#N)c43)c2=O)cc1` showed an IC50 of 49 nM. Work on `CN(C)c1ccnc2sc3c(=O)n(-c4ccc5cc[nH]c5c4)cnc3c12` yielded an IC50 of 122 nM. `C[N+](C)([O-])c1ccnc2sc3c(=O)n(C4CCCCCC4)cnc3c12` showed an IC50 of 167 nM.

Same assay, conditions: read-out: pIC50 (converted)
With `CCc1ccc(-n2cnc3c(sc4nccc(NCC#N)c43)c2=O)cc1` the IC50 was 42.7 nM.
